Measurements from PMC8286840, “Identifying SARS-CoV-2 antiviral compounds by screening for small molecule inhibitors of Nsp3 papain-like protease” (Biochemical Journal, 2021).
Where a name gives a salt, the structure may show the parent alone. Read-outs that look alike come from different tables or passages of the source.

Legend:
[1] = target: T1, SARS-CoV-2 PLpro (nsp3 1564–1878) (Severe acute respiratory syndrome coronavirus 2, UniProt P0DTD1); experiment: biochemical; set-up: FRET-quenched peptide (Pro3) cleavage by PLpro, 10 min pre-incubation, slope over 20 min, normalised to no-compound control; conditions: low concentration screen, read-out: % of control remaining
Experimental: The plates were organized with columns 3–22 containing the compounds; the remaining columns were used for reaction controls including substrate only and substrate with enzyme but no compound (Figure 3Aii). The PLpro enzyme was pre-incubated with the compounds for 10 min, and then the reaction was initiated by the addition of substrate. […] We incubated the inhibitors with PLpro before the enzymatic reaction so that the slow-binding inhibitors will not be missed out [21]. […] Fluorescence was read on a Spark multimode microplate reader (Tecan) with an excitation wavelength at 330 nm and emission wavelength at 420 nm. […] An amount of 5 µl of the enzyme was pre-incubated with compounds for 10 min before the addition of 15 µl substrate. Fluorescence was monitored at 2 min for 20 min with 3 min intervals giving a total of seven readings.

[2] = target: T1, SARS-CoV-2 PLpro (nsp3 1564–1878); experiment: biochemical; set-up: FRET-quenched peptide (Pro3) cleavage by PLpro, 10 min pre-incubation, slope over 20 min, normalised to no-compound control; conditions: high concentration screen, read-out: % of control remaining

Nc1ccn([C@H]2CC[C@@H](CO)O2)c(=O)n1 [2',3'-dideoxycytidine]
remaining activity at 1.25 µM ([1]; Well no.=549): 98.3%
remaining activity at 3.75 µM ([2]; Well no.=549): 96.6%

Nc1ncnc2c1ncn2[C@H]1C[C@H](O)[C@@H](CO)O1 [2'-Deoxyadenosine monohydrate]
remaining activity at 1.25 µM ([1]; Well no.=8885): 95.3%
remaining activity at 3.75 µM ([2]; Well no.=8885): 90.7%

Nc1ncnc2c1ncn2[C@H]1C[C@H](O)[C@@H](CO)O1 [2'-Deoxyadenosine]
remaining activity at 1.25 µM ([1]; Well no.=6691): 106%
remaining activity at 1.25 µM ([1]; Well no.=7722): 95.5%
remaining activity at 3.75 µM ([2]; Well no.=6691): 105%
remaining activity at 3.75 µM ([2]; Well no.=7722): 101%

Nc1ccn([C@H]2C[C@H](O)[C@@H](CO)O2)c(=O)n1 [2'-Deoxycytidine (hydrochloride)]
remaining activity at 1.25 µM ([1]; Well no.=7806): 105%
remaining activity at 3.75 µM ([2]; Well no.=7806): 109%

Nc1ccn([C@H]2C[C@H](O)[C@@H](CO)O2)c(=O)n1 [2'-Deoxycytidine]
remaining activity at 1.25 µM ([1]; Well no.=7451): 93.9%
remaining activity at 1.25 µM ([1]; Well no.=7760): 96.4%
remaining activity at 3.75 µM ([2]; Well no.=7451): 93.7%
remaining activity at 3.75 µM ([2]; Well no.=7760): 98.4%

Nc1nc2c(ncn2[C@H]2C[C@H](O)[C@@H](CO)O2)c(=O)[nH]1 [2'-Deoxyguanosine]
remaining activity at 1.25 µM ([1]; Well no.=6209): 102%
remaining activity at 1.25 µM ([1]; Well no.=7772): 99.2%
remaining activity at 3.75 µM ([2]; Well no.=6209): 97.7%
remaining activity at 3.75 µM ([2]; Well no.=7772): 101%

O=c1[nH]cnc2c1ncn2[C@H]1C[C@H](O)[C@@H](CO)O1 [2'-Deoxyinosine]
remaining activity at 1.25 µM ([1]; Well no.=7497): 106%
remaining activity at 1.25 µM ([1]; Well no.=7712): 95%
remaining activity at 3.75 µM ([2]; Well no.=7497): 105%
remaining activity at 3.75 µM ([2]; Well no.=7712): 96.3%

O=c1ccn([C@H]2C[C@H](O)[C@@H](CO)O2)c(=O)[nH]1 [2'-Deoxyuridine]
remaining activity at 1.25 µM ([1]; Well no.=6627): 107%
remaining activity at 1.25 µM ([1]; Well no.=8893): 103%
remaining activity at 3.75 µM ([2]; Well no.=6627): 102%
remaining activity at 3.75 µM ([2]; Well no.=8893): 103%

c1ccc(-c2ccccn2)nc1 [2,2'-Bipyridyl]
remaining activity at 1.25 µM ([1]; Well no.=724): 96.8%
remaining activity at 3.75 µM ([2]; Well no.=724): 95.8%

O=C(Nc1ccc(S(=O)(=O)Nc2nccs2)cc1)C(c1ccccc1)c1ccccc1 [2,2-diphenyl-N-{4-[(1,3-thiazol-2-ylamino)sulfonyl]phenyl}acetamide]
remaining activity at 1.25 µM ([1]; Well no.=5558): 92.9%
remaining activity at 3.75 µM ([2]; Well no.=5558): 96.4%

CC(=O)/C(C)=N/O [2,3-Butanedione monoxime]
remaining activity at 1.25 µM ([1]; Well no.=22): 103%
remaining activity at 3.75 µM ([2]; Well no.=22): 105%

CC(=O)C(C)=O [2,3-Butanedione]
remaining activity at 1.25 µM ([1]; Well no.=687): 98.3%
remaining activity at 3.75 µM ([2]; Well no.=687): 97.2%

COC1=C(OC)C(=O)c2ccccc2C1=O [2,3-Dimethoxy-1,4-naphthoquinone]
remaining activity at 1.25 µM ([1]; Well no.=739): 98%
remaining activity at 3.75 µM ([2]; Well no.=739): 96.9%

CCCCC[C@H](O)/C=C/[C@@H]1[C@@H](CC(=O)CCC(=O)O)[C@@H](O)C[C@@H]1O [2,3-Dinor-6-keto-prostaglandin F1a]
remaining activity at 1.25 µM ([1]; Well no.=4527): 93.5%
remaining activity at 3.75 µM ([2]; Well no.=4527): 97.9%

COc1cc2c[n+](C)c3c4cc5c(cc4ccc3c2cc1OC)OCO5 [2,3-dimethoxy-12-methyl[1,3]benzodioxolo[5,6-c]phenanthridin-12-ium chloride]
remaining activity at 1.25 µM ([1]; Well no.=5862): 100%
remaining activity at 3.75 µM ([2]; Well no.=5862): 98.5%

O=C(O)c1ccc(O)cc1O [2,4-Dihydroxybenzoic acid]
remaining activity at 1.25 µM ([1]; Well no.=6781): 102%
remaining activity at 3.75 µM ([2]; Well no.=6781): 101%

O=[N+]([O-])c1ccc(O[C@@H]2O[C@H](CO)[C@@H](O)[C@H](O)[C@H]2F)c([N+](=O)[O-])c1 [2,4-Dinitrophenyl 2-fluoro-2-deoxy-beta-D-glucopyranoside]
remaining activity at 1.25 µM ([1]; Well no.=637): 100%
remaining activity at 3.75 µM ([2]; Well no.=637): 101%

COC(=O)/C=C/c1cc(O)ccc1O [2,5-Dihydroxycinnamic acid methyl ester]
remaining activity at 1.25 µM ([1]; Well no.=495): 103%
remaining activity at 3.75 µM ([2]; Well no.=495): 106%

O=C(O)c1ccc(C(=O)O)o1 [2,5-Furandicarboxylic acid]
remaining activity at 1.25 µM ([1]; Well no.=7461): 98%
remaining activity at 3.75 µM ([2]; Well no.=7461): 91.7%

Nc1cc(=O)[nH]c(N)n1 [2,6-Diamino-4-pyrimidinone]
remaining activity at 1.25 µM ([1]; Well no.=452): 104%
remaining activity at 3.75 µM ([2]; Well no.=452): 99.9%

O=C(O)c1c(O)cccc1O [2,6-Dihydroxybenzoic acid]
remaining activity at 1.25 µM ([1]; Well no.=6921): 108%
remaining activity at 3.75 µM ([2]; Well no.=6921): 105%

N=C(N)SCCN [2-(2-Aminoethyl)isothiourea dihydrobromide]
remaining activity at 1.25 µM ([1]; Well no.=353): 96.2%
remaining activity at 3.75 µM ([2]; Well no.=353): 97.5%

Cc1ccccc1C(=O)NCC(=O)O [2-(2-Methylbenzamido)acetic acid]
remaining activity at 1.25 µM ([1]; Well no.=6725): 103%
remaining activity at 3.75 µM ([2]; Well no.=6725): 104%

Fc1ccc(-c2c3cccc(C(F)(F)F)c3nn2Cc2ccc(F)cc2Cl)cc1 [2-(2-chloro-4-fluorobenzyl)-3-(4-fluorophenyl)-7-(trifluoromethyl)-2H-indazole]
remaining activity at 1.25 µM ([1]; Well no.=6061): 93.7%
remaining activity at 3.75 µM ([2]; Well no.=6061): 94.4%

COc1cc2oc(-c3ccc(O)c(O)c3)cc(=O)c2c(O)c1OC [2-(3,4-dihydroxyphenyl)-5-hydroxy-6,7-dimethoxy-4H-chromen-4-one]
remaining activity at 1.25 µM ([1]; Well no.=5979): 97%
remaining activity at 3.75 µM ([2]; Well no.=5979): 93.4%

COc1ccc(N2C(=O)CSC2c2cccc(Br)c2)c(OC)c1 (centres unmarked) [2-(3-bromophenyl)-3-(2,4-dimethoxyphenyl)-1,3-thiazolidin-4-one]
remaining activity at 1.25 µM ([1]; Well no.=6016): 101%
remaining activity at 3.75 µM ([2]; Well no.=6016): 98.8%

COc1ccc(CC(=O)O)cc1 [2-(4-Methoxyphenyl)acetic acid]
remaining activity at 1.25 µM ([1]; Well no.=6451): 100%
remaining activity at 3.75 µM ([2]; Well no.=6451): 104%

O=C(COc1ccc(C(=O)c2ccccc2)cc1)NC1CCN(Cc2ccccc2)CC1 [2-(4-benzoylphenoxy)-N-(1-benzyl-4-piperidinyl)acetamide]
remaining activity at 1.25 µM ([1]; Well no.=5650): 101%
remaining activity at 3.75 µM ([2]; Well no.=5650): 98.9%

CC(=O)NCCOC(=O)[C@H](Oc1cccc(C(F)(F)F)c1)c1ccc(Cl)cc1 [2-(acetylamino)ethyl (2R)-(4-chlorophenyl)[3-(trifluoromethyl)phenoxy]ethanoate]
remaining activity at 1.25 µM ([1]; Well no.=6055): 100%
remaining activity at 3.75 µM ([2]; Well no.=6055): 97.1%

C[N+](C)(C)CCC(=O)c1cccc2ccccc12 [2-(alpha-Naphthoyl)ethyltrimethylammonium iodide]
remaining activity at 1.25 µM ([1]; Well no.=1051): 96.5%
remaining activity at 3.75 µM ([2]; Well no.=1051): 103%

NCC(O)c1ccccc1 (centres unmarked) [2-Amino-1-phenylethanol]
remaining activity at 1.25 µM ([1]; Well no.=7217): 95.5%
remaining activity at 3.75 µM ([2]; Well no.=7217): 96.7%

CCCCC/C=C\C/C=C\C/C=C\C/C=C\CCCC(=O)OC(CO)CO [2-Arachidonoylglycerol]
remaining activity at 1.25 µM ([1]; Well no.=4505): 94.8%
remaining activity at 3.75 µM ([2]; Well no.=4505): 88.7%
